# Test results taken from publication PMC11885754, “Engineered phenylalanine hydroxylase coupled with an effective cofactor synthesis and regeneration system for high-yield production of 5-hydroxytryptophan” (Bioresources and Bioprocessing, 2025).
# Target: T1, XcPAH (Xanthomonas campestris, UniProt Q8PE27)
# T1 construct: gene pah; full length 296 aa, synthesized gene in pET30a (BamHI/XhoI) co-expressed with CvPCD and EcFolM in E. coli BL21(DE3)-derived strain TRP1
# T1 sequence (Q8PE27 1-296): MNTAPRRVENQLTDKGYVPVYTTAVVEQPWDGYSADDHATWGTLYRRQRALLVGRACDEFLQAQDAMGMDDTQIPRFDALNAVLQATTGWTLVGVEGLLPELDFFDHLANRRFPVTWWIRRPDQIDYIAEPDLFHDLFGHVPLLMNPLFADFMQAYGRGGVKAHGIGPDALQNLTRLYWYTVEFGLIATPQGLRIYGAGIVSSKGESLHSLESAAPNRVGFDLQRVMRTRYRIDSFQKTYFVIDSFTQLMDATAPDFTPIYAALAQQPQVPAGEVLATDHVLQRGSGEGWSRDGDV
# Assay: whole-cell conversion of L-Phe to L-Tyr, HPLC
# Type: cell-based
# Settings: E. coli TRP1 cells, 10 mM L-Phe, endogenous MH4 with CvPCD-EcFolM regeneration, 25 °C, 24 h, pH about 7.0
smiles,measurement,value
N[C@@H](Cc1ccccc1)C(=O)O [L-Phe],"whole-cell conversion of L-Phe to L-Tyr, HPLC",(TRP1-XC1 and TRP1-CT1) were capable of converting L-Phe into L-Tyr
